Like-named read-outs stand apart in the source and are kept apart here.
T1: UGT1A1 (Homo sapiens, UniProt P22309)
T1 sequence (P22309 26-533): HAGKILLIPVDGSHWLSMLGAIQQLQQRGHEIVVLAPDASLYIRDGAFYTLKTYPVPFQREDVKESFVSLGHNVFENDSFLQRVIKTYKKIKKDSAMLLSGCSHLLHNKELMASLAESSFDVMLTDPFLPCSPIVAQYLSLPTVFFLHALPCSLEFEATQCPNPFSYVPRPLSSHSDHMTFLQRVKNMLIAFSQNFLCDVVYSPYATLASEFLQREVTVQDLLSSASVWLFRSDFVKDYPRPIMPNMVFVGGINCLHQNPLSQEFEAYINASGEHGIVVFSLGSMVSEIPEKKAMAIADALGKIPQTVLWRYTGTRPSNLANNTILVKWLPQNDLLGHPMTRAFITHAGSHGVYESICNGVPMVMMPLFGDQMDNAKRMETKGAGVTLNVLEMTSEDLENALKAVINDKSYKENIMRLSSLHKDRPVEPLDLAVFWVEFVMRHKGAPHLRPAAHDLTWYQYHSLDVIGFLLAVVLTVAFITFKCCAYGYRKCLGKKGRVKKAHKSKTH

T2: UGT1A10 (Homo sapiens, UniProt Q9HAW8)
T2 sequence (Q9HAW8 26-530): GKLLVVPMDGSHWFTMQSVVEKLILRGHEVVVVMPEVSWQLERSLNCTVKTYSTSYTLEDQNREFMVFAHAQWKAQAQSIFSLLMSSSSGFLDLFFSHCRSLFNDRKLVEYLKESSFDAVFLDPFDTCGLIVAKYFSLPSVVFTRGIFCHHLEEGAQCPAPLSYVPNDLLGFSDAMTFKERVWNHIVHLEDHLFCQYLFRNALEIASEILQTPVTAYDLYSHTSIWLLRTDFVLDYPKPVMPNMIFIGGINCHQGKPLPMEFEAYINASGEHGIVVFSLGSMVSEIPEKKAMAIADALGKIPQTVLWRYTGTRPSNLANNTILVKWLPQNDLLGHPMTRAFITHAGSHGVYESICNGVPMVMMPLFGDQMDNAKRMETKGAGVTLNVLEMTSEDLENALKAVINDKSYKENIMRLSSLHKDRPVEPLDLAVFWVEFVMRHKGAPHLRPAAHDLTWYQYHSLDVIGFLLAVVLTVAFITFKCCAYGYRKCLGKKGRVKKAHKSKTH

T3: UGT2B7 (Homo sapiens, UniProt P16662)
T3 sequence (P16662 24-529): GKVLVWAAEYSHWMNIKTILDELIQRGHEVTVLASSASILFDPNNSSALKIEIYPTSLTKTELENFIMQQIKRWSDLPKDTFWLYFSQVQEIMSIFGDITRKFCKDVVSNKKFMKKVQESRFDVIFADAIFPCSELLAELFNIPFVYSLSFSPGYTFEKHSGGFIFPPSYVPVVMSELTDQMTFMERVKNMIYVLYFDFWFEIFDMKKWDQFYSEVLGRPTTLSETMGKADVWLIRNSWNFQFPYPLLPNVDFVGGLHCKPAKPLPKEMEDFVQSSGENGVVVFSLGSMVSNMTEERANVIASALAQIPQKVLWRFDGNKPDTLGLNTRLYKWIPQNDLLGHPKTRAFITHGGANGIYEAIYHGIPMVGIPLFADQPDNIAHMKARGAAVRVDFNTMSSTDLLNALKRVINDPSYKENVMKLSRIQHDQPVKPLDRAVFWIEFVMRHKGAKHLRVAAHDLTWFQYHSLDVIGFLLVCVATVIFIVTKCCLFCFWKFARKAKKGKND


Legend:
UGT1A1 [1] = target: T1, UGT1A1; test: Inhibition of UGT1A1 (β-estradiol-3-O-glucuronidation); settings: for Inhibitory type: best model by smallest AIC and SC; for activity at 10 µM: human
Protocol: (§1) The final volume of solvent in incubations was 1%. In addition, emodin, atazanavir, and diclofenac were considered as positive controls for UGT1A10, UGT1A1, and UGT2B7, respectively.
(§2) Competitive inhibition, non-competitive inhibition, and mixed-type inhibition models were used to estimate the Ki values by nonlinear regression based on Eqs 6–8, respectively.

UGT1A10 = target: T2, UGT1A10; test: Inhibition of UGT1A10 (4-methylumbelliferone-O-glucuronidation); settings: for Inhibitory type: best model by smallest AIC and SC; for activity at 10 µM: human, expressed human UGT1A10 enzyme, probe 4-methylumbelliferone (4-MU)
Protocol: as §1, §2

UGT2B7 = target: T3, UGT2B7; test: Inhibition of UGT2B7 (zidovudine-N-glucuronidation); settings: for Inhibitory type: best model by smallest AIC and SC; for activity at 10 µM: human, probe zidovudine (AZT); for α: mixed-type inhibition model, αKi
Protocol: as §1, §2

UGT1A1 [2] = system: UGT1A1; parameters: method as in Wang et al., 2015a; settings: ref Wang et al., 2015a; cited from earlier work
[3] = substrate: C[C@]12CC[C@@H]3c4ccc(O)cc4CC[C@H]3[C@@H]1C[C@@H](O)[C@@H]2O; test: cells, lysate or membranes named; settings: other: UGT2B7; 16-O-glucuronide formation; pH 7.4; 37.0 °C
Protocol: In brief, incubation mixtures (100 μL) contained Tris-HCl buffer solution (50 mM, pH = 7.4), microsomes (HLM, HIM, 0.5 mg/ml) or UGT enzymes (1 mg/ml), MgCl2 (0.88 mM), alamethicin (22 μg/ml), and D-saccharic-1,4-lactone (4.4 mM) and respective substrate. The volume of organic solvent in incubation mixtures was kept below 1%. After pre-incubation at 37°C for 5 min, the reaction was commenced with the addition of UDPGA (4 mM) and subsequently incubated at 37°C for a period. The reaction was terminated by adding 100 μL of cold acetonitrile. Then, the incubation mixtures were vortexed and centrifuged at 13,800 g for 10 min to collect the supernatant for analysis.
All experiments were performed in triplicate.
Glucuronidation rates were expressed as the amounts of formed metabolites per minute per milligram protein (pmol/min/mg protein) based on Eq. 1. Furthermore, kinetic characteristics were evaluated from the suitable curves based on the profile of the Eadie–Hofstee plot, and corresponding kinetic parameters were estimated using Eqs 2–4. Appropriated model fitting was performed by GraphPad Prism V5 software (San Diego, CA).
The intrinsic clearance (CL int ) was derived from V max /K m for Michaelis–Menten and substrate inhibition models, and the maximal clearance (CL max ) was obtained using Eq. 5 for Hill kinetics.

[4] = human UGT1A1 enzyme, probe β-estradiol (E2)
[5] = UGT2B7 enzyme (optimized UGT2B7 incubation system)

Molecule	IC50 (UGT1A1 [1]) [µM]	Ki (UGT1A1 [1]) [µM]	Inhibitory type (UGT1A1 [1]; UGT1A1)	Inhibitory type (UGT1A10; UGT1A10)	Inhibitory type (UGT2B7; UGT2B7)	activity at 10 µM (UGT1A1 [1]; [4]) [%]	IC50 (UGT1A10) [µM]	Ki (UGT1A10) [µM]	activity at 10 µM (UGT1A10) [%]	IC50 (UGT2B7) [µM]	activity at 10 µM (UGT2B7; [5]) [%]	further results
O=C(C=Cc1ccc(O)c2c1C(C(=O)OC(Cc1ccc(O)c(O)c1)C(=O)O)C(c1ccc(O)c(O)c1)O2)OC(Cc1ccc(O)c(O)c1)C(=O)O (centres unmarked) [Salvianolic acid B, salvianolic acid B]	3.78 ± 0.53	2.16 ± 0.21	Competitive	–	–	–	–	–	–	–	–	activity at 10 µM (UGT1A1 [1]): 36.2%
O=C(O)Cc1ccccc1Nc1c(Cl)cccc1Cl [diclofenac, reference compound]	–	–	–	–	–	–	–	–	–	–	–	activity at 10 µM (UGT2B7; expressed human UGT2B7 enzyme): 53.9%
CC(C)=CCc1cc2c(cc1O)O[C@H](c1ccc(O)cc1)CC2=O [Bavachin, bavachin]	0.61 ± 0.02	0.4 ± 0.05	Non-competitive	Competitive	Mixed type	2.43	5.63 ± 0.46	2.81 ± 0.21	35.6	4.97 ± 0.55	32.5	Ki (UGT1A1 [2]): < 1 µM; Ki (UGT2B7): 0.64 ± 0.16 µM; α (UGT2B7; UGT2B7): 69.70 ± 6.67
COc1ccc(-c2oc3c(CC=C(C)C)c(O[C@@H]4O[C@H](CO)[C@@H](O)[C@H](O)[C@H]4O)cc(O)c3c(=O)c2O)cc1 [Icariside I, icariside I]	3.28 ± 1.2	6.01 ± 0.47	Non-competitive	Competitive	–	35.5	1.39 ± 0.33	1.92 ± 0.26	26.5	–	–	–
CC(C)=CCc1cc(-c2coc3cc(O)ccc3c2=O)ccc1O [Neobavaisoflavone, neobavaisoflavone]	2.86 ± 0.14	0.78 ± 0.16	Non-competitive	Competitive	Mixed type	7.42	3.99 ± 0.67	2.6 ± 0.23	31.1	1.17 ± 0.1	10.2	Ki (UGT2B7): 0.39 ± 0.03 µM; α (UGT2B7; UGT2B7): 5.15 ± 2.08
CC(C)=CCc1cc(C(=O)/C=C/c2ccc(O)cc2)c(O)cc1O [Bavachalcone, bavachalcone]	0.53 ± 0.07	1.1 ± 0.08	Non-competitive	–	Competitive	13	–	–	–	4.65 ± 0.52	27.2	Ki (UGT2B7): 1.87 ± 0.2 µM
CC(C)=CCc1c(O)ccc(C(=O)/C=C/c2ccc(O)cc2)c1O [Isobavachalcone, isobavachalcone]	1.65 ± 0.15	1.2 ± 0.12	Non-competitive	Non-competitive	Competitive	3.97	2.8 ± 0.3	1.66 ± 0.19	8.61	1.38 ± 0.22	0	Ki (UGT2B7): 0.3 ± 0.07 µM
COC(=O)N[C@H](C(=O)N[C@@H](Cc1ccccc1)[C@@H](O)CN(Cc1ccc(-c2ccccn2)cc1)NC(=O)[C@@H](NC(=O)OC)C(C)(C)C)C(C)(C)C [atazanavir, reference compound]	–	–	–	–	–	–	–	–	–	–	–	activity at 10 µM (UGT1A1 [1]; expressed human UGT1A1 enzyme, probe β-estradiol (E2)): 4.38%
CC(C)=CCC/C(C)=C/Cc1cc(-c2coc3cc(O)ccc3c2=O)ccc1O [Corylifol A, corylifol A]	0.44 ± 0.05	0.44 ± 0.07	Competitive	Non-competitive	Mixed type	0.72	2.91 ± 0.34	0.78 ± 0.06	13.9	0.88 ± 0.08	0	Ki (UGT1A1 [2]): < 1 µM; Ki (UGT2B7): 0.36 ± 0.07 µM; α (UGT2B7; UGT2B7): 5.17 ± 3.55
COc1ccc(-c2oc3c(CC=C(C)C)c(O)cc(O)c3c(=O)c2O)cc1 [Icaritin, icaritin]	1.28 ± 0.26	0.42 ± 0.17	Non-competitive	–	–	10.2	–	–	–	–	–	–
COc1ccc(-c2oc3c(CC=C(C)C)c(O[C@@H]4O[C@H](CO)[C@@H](O)[C@H](O)[C@H]4O)cc(O)c3c(=O)c2O[C@@H]2O[C@@H](C)[C@H](O)[C@@H](O)[C@H]2O)cc1 [Icariin, icariin]	–	–	–	–	–	–	5.94 ± 1.24	9.77 ± 0.82	37.3	–	–	–
icariside II	–	–	Competitive	Competitive	Competitive	–	–	–	–	–	–	–
CC(C)=CCc1c(O)ccc2c1O[C@H](c1ccc(O)cc1)CC2=O [Isobavachin, isobavachin]	1.73 ± 0.11	–	Competitive	Non-competitive	Competitive	4.58	3.62 ± 0.36	1.81 ± 0.28	20.4	0.11 ± 0.01	0	Ki (UGT1A1 [1]; UGT1A1, substrate E2): 3.35 ± 0.53 µM; Ki (UGT2B7; UGT2B7, substrate AZT): 0.02 ± 0.01 µM
C=C[C@@](C)(/C=C/c1ccc(O)cc1)CCC=C(C)C [Bakuchiol, bakuchiol]	–	–	–	–	Competitive	–	–	–	–	4.55 ± 0.43	35.5	–
UGT2B7 (Homo sapiens) (protein) GKVLVWAAEYSHWMNIKTILDELIQRGHEVTVLASSASILFDPNNSSALKIEIYPTSLTKTELENFIMQQIKRWSDLPKDTFWLYFSQVQEIMSIFGDITRKFCKDVVSNKKFMKKVQESRFDVIFADAIFPCSELLAELFNIPFVYSLSFSPGYTFEKHSGGFIFPPSYVPVVMSELTDQMTFMERVKNMIYVLYFDFWFEIFDMKKWDQFYSEVLGRPTTLSETMGKADVWLIRNSWNFQFPYPLLPNVDFVGGLHCKPAKPLPKEMEDFVQSSGENGVVVFSLGSMVSNMTEERANVIASALAQIPQKVLWRFDGNKPDTLGLNTRLYKWIPQNDLLGHPKTRAFITHGGANGIYEAIYHGIPMVGIPLFADQPDNIAHMKARGAAVRVDFNTMSSTDLLNALKRVINDPSYKENVMKLSRIQHDQPVKPLDRAVFWIEFVMRHKGAKHLRVAAHDLTWFQYHSLDVIGFLLVCVATVIFIVTKCCLFCFWKFARKAKKGKND	–	–	–	–	–	–	–	–	–	–	–	K0.5 [3]: 9.92 ± 0.69 µM; Vmax [3]: 0.00788 µmol/min/mg; Vmax/Km [3]: 794 µL/min/mg

Now from value to molecule, other results behind:

IC50 (UGT1A1 [1]) [µM]	Ki (UGT1A1 [1]) [µM]	Inhibitory type (UGT1A1 [1]; UGT1A1)	Inhibitory type (UGT1A10; UGT1A10)	Inhibitory type (UGT2B7; UGT2B7)	activity at 10 µM (UGT1A1 [1]; [4]) [%]	IC50 (UGT1A10) [µM]	Ki (UGT1A10) [µM]	activity at 10 µM (UGT1A10) [%]	IC50 (UGT2B7) [µM]	activity at 10 µM (UGT2B7; [5]) [%]	Molecule	further results
–	–	–	Competitive	Competitive	–	–	–	–	–	–	bavachinin	residual activity of UGT1A10 (UGT1A10; 10 μM, % of negative control): 37.70%; IC50 (UGT1A10; UGT1A10, substrate 4-MU): 5.42 ± 0.64 µM; Ki (UGT1A10; UGT1A10, substrate 4-MU): 3.29 ± 0.23 µM; residual activity (Figures 3G–I, UGT2B7) (UGT2B7; 10 μM, % of negative control): 13.23%; IC50 (UGT2B7; UGT2B7, substrate AZT): 2.27 ± 0.26 µM; Ki (UGT2B7; UGT2B7, substrate AZT): 1.11 ± 0.17 µM
1.95 ± 0.15	0.98 ± 0.23	Non-competitive	–	–	1.48	–	–	–	–	–	CC(C)=CCc1cc2c(cc1O)oc(=O)c1c3ccc(O)cc3oc21 [Psoralidin, psoralidin]	–
–	–	–	–	–	–	–	–	52.4	–	–	Cc1cc(O)c2c(c1)C(=O)c1cc(O)cc(O)c1C2=O [emodin, reference compound]	–
